Data on one compound can be found in patent US20250075155A1, “Use of Vanillyl Ethers to Modify Flavor of Distilled Spirits” (Firmenich Incorporated, priority 2021, published 2025).

The nature of this assay: Sensory testing of unaged grain neutral spirit with vs without VEE (qualitative, taste testers). As to the method:
Sensory testing was performed comparing two samples of unaged grain neutral spirit (20% alcohol by volume), where one sample contained no vanillyl ether compounds and the other sample contained 4-(ethoxy methyl)-2-methoxyphenol (vanillyl ethyl ether or VEE) at a concentration of 5 ppm. The taste testers were asked to describe the differences between the two samples on a qualitative basis.
Sensory testing was performed comparing two samples of unaged grain neutral spirit (20% alcohol by volume), where one sample contained no vanillyl ether compounds and the other sample contained 4-(ethoxymethyl)-2-methoxyphenol (vanillyl ethyl ether or VEE) at a concentration of 25 ppm. The taste testers were asked to describe the differences between the two samples on a qualitative basis.

Where [1] appears, read: VEE 5 ppm in unaged grain neutral spirit (20% ABV), relative to control sample.
Setting [2] is: VEE 25 ppm in unaged grain neutral spirit (20% ABV), relative to control sample.

In the case of `CCOCc1ccc(O)c(OC)c1` [VEE, 4-(ethoxymethyl)-2-methoxyphenol], under setting [1], the Bitterness result is “All taste testers identified the test sample as having a less bitter”, the “Overall Taste” value is “All taste testers identified the test sample as having a better overall”, the Smoothness/Balance/Roundness result is listed as “All taste testers identified the test sample as having greater” and the “Smoothness/Balance/Roundness: taste characteristic of an aged spirit” value is “test sample as having a taste more characteristic of an aged spirit”. Under setting [1], the Sweetness result is given as “sweeter taste”. The Smell entry (VEE 5 ppm in unaged grain neutral spirit (20% alcohol by volume), relative to control sample without vanillyl ether) is “sample (containing VEE) as having a slight rum-like smell relative”. For the same compound, under setting [2], the Bitterness entry is “All taste testers identified the test sample as having a less bitter”, the “Overall Taste” value was “All taste testers identified the test sample as having a better”, the Smoothness/Balance/Roundness entry is recorded as “All taste testers identified the test sample as having greater” and the Sweetness entry is “sweeter taste”. Also, under setting [2], the Tingling/Heat entry is “increased tingling/hot perception very similar to ethanol profile” and the “Tingling/Heat: alcohol perception” value is given as “while significantly increasing the alcohol perception; taste like”.
